Test results taken from patent publication EP2739628B1.
Like-named read-outs stand apart in the source and are kept apart here.

Details: rcm bond

With `COC(=O)Nc1ccc2c(c1)N[C@@H](C(=O)OC)CC=CC[C@H](NC(=O)OC(C)(C)C)c1nc-2cn1COCC[Si](C)(C)C` as the compound, how does the ring closure, yield of all isomers (from C=CC[C@H](NC(=O)OC(C)(C)C)c1nc(-c2ccc(NC(=O)OC)cc2N[C@H](CC=C)C(=O)OC)cn1COCC[Si](C)(C)C, Grubbs II, DCE, 40.0 mM, 120.0 °C, 0.33 h) read?
Its ring closure, yield of all isomers is 23%.

For `CCOC(=O)C1C/C=C/C[C@H](NC(=O)OC(C)(C)C)c2cc(ccn2)-c2ccc(NC(=O)OC)cc2N1` (stereo partly shown), which ring closure, yield of all isomers (from C=CCC(Nc1cc(NC(=O)OC)ccc1-c1ccnc([C@H](CC=C)NC(=O)OC(C)(C)C)c1)C(=O)OCC, Grubbs II) is on record?
The ring closure, yield of all isomers was 47%.

Which ring closure, yield of all isomers (from C=CC[C@H](NC(=O)OC(C)(C)C)c1nc(-c2ccc(NC(=O)OC)cc2NC(=O)[C@H](C)C=C)cn1COCC[Si](C)(C)C, Grubbs 2nd generation catalyst (with pTsOH monohydrate), dichloromethane, 9.73 mM, 40.0 °C, 21.5 h) does the source give for `COC(=O)Nc1ccc2c(c1)NC(=O)[C@H](C)C=CC[C@H](NC(=O)OC(C)(C)C)c1nc-2cn1COCC[Si](C)(C)C` here?
The ring closure, yield of all isomers was 41%.

For `COC(=O)Nc1ccc2c(c1)NC(=O)C/C=C/C[C@H](NC(=O)OC(C)(C)C)c1cc-2ccn1`, which ring closure, yield of all isomers (from C=CCC(=O)Nc1cc(NC(=O)OC)ccc1-c1ccnc([C@H](CC=C)NC(=O)OC(C)(C)C)c1, Grubbs II, DCM, 3.99 mM, 45.0 °C, 19.0 h) is on record?
Its ring closure, yield of all isomers is 26%.
